Experimental findings from US12162879B2, “Pyridopyrimidine derivative, preparation method therefor and medical use thereof” (Jiangsu Hengrui Medicine Co., Ltd., priority 2018, dated 2024) are described below.

SMILES strings stand for the structures.

Data set [1] addresses human TLR8 (Homo sapiens (Human), UniProt Q9NR97). As to the kind of experiment: Agonist activity on human TLR8 in HEK-Blue hTLR8 stably transfected cells. In kind it is cell-based. Conditions: 16 hours, OD 620 nm. The method, then:
The agonist effect of the compounds of the present invention on hTLR8 expressed by the HEK-Blue™ hTLR8 stably transfected cells was determined by the following experimental method.
• 1. DMEM(Gibco, 10564-029); • 2. Fetal bovine serum (GIBCO, 10099); • 3. Trypan blue solution (Sigma, T8154-100 ML); • 4. Flexstation 3 multi-function microplate reader (Molecular Devices); • 5. HEK-Blue™ hTLR8 cell line (InvivoGen, hkb-hTLR8), or HEK-Blue™ hTLR7 cell line (InvivoGen, hkb-hTLR7); • 6. HEK-Blue detection reagent (InvivoGen, hb-det3); and • 7. Phosphate buffer solution (PBS) pH 7.4 (Shanghai Basalmedia Technologies Co., Ltd., B320). II. Experimental Procedures a. Determination of Agonist Activity on Human TLR8
A bag of HEK-Blue detection dry powder was dissolved in 50 ml of water free of endotoxin, and the solution was then placed in an incubator at 37° C. for 10 minutes followed by sterile filtration to prepare a HEK-Blue detection medium. The compound was firstly formulated into a 20 mM stock solution, then diluted with pure DMSO to a maximum concentration of 6×10^6 nM, and a total of 10 points were obtained by a 3-fold gradient dilution. The above formulated compound was firstly diluted 20-fold with the medium, then 20 μl of the diluted compound was added to each well.
The supernate was removed from the HEK-Blue™ hTLR8 cells, to which 2-5 ml of pre-warmed PBS was then added. The cells were placed in an incubator for 1-2 minutes, gently pipetted, and counted by trypan blue staining. The cells were re-suspended in the HEK-Blue detection medium to adjust the concentration to 2.2×10^5 cells/ml. 180 μl of cells was added to the above 96-well plate comprising 20 μl of the compound, and incubated at 37° C. for 16 hours.
The corresponding OD values were obtained by a microplate reader at a wavelength of 620 nm, and the EC50 values of the compounds were calculated by Graphpad Prism.

The target of data set [2] is CYP3A4 (testosterone metabolite site) (Homo sapiens (Human), UniProt P08684). The data set is described as follows: Inhibition of enzyme activity of testosterone metabolite site of CYP3A4 in human liver microsomes. It is filed as in vitro ADME. To be noted: human liver microsome, testosterone probe substrate, 30 minutes. The protocol: The effect of the compounds of the present invention on the enzyme activity of testosterone metabolite site of CYP3A4 in human liver microsomes was determined by the following experimental method.
• 1. Phosphate buffer solution (PBS); • 2. NADPH (Sigma N-1630); • 3. Human liver microsome (Corning Gentest); • 4. ABI QTrap 4000 liquid chromatograph/mass spectrometer (AB Sciex); • 5. Inertsil C8-3 column, 4.6×50 mm, 5 μm (Dikma Technologies Inc., USA); and • 6. CYP probe substrate (testosterone/100 μM, […]) and positive control inhibitor (ketoconazole, Dr. Ehrenstorfer GmbH, C17322500). II. Experimental Procedures
100 mM PBS buffer was formulated, which was then used to formulate 2.5 mg/ml human microsome solution and 5 mM NADPH solution. The 5× concentration of the compound working solution was diluted with PBS in gradients (150, 50, 15, 5, 1.5, 0.15, 0.015, 0 μM). The 5× concentration of ketoconazole working solution was diluted with PBS in gradients (150, 50, 15, 5, 1.5, 0.15, 0.015, 0 μM). […] working solution was diluted with PBS to a concentration of 50 μM.
20 μl of 2.5 mg/ml microsome solution, 20 μl of 50 μM testosterone working solution, 20 μl of MgCl2 solution and 20 μl of the compound working solution (150, 50, 15, 5, 1.5, 0.15, 0.015, 0 μM, different reaction systems for each concentration) were mixed well. For the positive control group, the compound was replaced with the same concentration of ketoconazole. The mixture together with 5 mM NADPH solution was pre-incubated at 37° C. for 5 minutes. After 5 minutes, 20 μl of NADPH was added to each well, the reaction was initiated, and the plate was incubated for 30 minutes. All the incubated samples were present in duplicate. After 30 minutes, 250 μl of acetonitrile containing internal standard (100 ng/ml camptothecin) was added to all samples, mixed well, shaken at 800 rpm for 10 minutes, and then centrifuged at 3700 rpm for 10 minutes. 80 μl of the supernatant was taken and analyzed by LC-MS/MS.
The data was calculated by Graphpad Prism to obtain the IC50 values of the compounds on the testosterone metabolite site of CYP3A4, which are shown in Table 4.

What is called EC50 is the concentration at which the effect is half-maximal. Read a high EC50 as lower potency in that assay. A word on the Emax: it is the maximal effect, on the per cent scale that the assay sets. For orientation: IC50 means the concentration at which inhibition is half-maximal.

Chain of human TLR8 (Q9NR97 27-1041): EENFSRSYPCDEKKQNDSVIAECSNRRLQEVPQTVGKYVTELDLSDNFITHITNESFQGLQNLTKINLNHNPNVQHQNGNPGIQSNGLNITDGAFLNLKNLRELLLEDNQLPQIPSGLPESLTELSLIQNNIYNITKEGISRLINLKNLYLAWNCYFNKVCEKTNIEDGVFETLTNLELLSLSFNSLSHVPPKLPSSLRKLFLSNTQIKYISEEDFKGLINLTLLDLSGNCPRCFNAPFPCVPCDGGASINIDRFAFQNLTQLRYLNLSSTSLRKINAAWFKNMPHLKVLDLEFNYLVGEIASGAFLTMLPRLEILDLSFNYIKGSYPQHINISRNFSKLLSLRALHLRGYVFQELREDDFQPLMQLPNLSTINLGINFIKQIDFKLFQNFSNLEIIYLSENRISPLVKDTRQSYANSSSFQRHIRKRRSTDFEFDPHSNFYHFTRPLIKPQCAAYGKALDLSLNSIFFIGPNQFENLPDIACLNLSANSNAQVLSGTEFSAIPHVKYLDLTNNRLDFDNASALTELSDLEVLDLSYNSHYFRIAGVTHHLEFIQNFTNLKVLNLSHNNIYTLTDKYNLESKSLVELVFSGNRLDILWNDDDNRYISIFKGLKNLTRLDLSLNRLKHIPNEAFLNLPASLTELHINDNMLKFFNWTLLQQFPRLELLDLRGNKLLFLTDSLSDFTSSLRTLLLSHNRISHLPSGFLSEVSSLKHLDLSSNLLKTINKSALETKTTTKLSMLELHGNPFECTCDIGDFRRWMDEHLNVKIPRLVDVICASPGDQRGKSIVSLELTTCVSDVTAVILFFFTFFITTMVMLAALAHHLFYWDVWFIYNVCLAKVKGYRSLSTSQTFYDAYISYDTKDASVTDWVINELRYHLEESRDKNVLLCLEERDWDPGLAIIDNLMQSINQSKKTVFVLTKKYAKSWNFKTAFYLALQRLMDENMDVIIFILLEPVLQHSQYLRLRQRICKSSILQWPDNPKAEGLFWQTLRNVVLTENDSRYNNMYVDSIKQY
Chain of CYP3A4 (testosterone metabolite site) (P08684 whole entry): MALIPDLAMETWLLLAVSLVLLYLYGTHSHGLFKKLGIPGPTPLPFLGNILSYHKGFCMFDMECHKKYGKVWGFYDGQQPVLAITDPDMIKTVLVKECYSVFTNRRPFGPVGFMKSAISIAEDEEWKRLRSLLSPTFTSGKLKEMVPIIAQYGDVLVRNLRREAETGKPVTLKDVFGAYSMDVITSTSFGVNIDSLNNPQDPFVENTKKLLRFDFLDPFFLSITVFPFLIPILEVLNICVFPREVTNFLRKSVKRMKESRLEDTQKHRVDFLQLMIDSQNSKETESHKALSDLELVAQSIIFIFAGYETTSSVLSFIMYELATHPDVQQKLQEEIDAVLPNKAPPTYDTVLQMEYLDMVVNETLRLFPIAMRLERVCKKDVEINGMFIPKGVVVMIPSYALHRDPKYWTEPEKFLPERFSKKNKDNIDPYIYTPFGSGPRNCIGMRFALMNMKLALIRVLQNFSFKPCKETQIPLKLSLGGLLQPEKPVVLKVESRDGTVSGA

In data set [1], `CCCC[C@](C)(CO)Nc1nc(N)nc2cc(-c3ccc(CN4CCCC4)nc3)cnc12` [Example 2, (R)-2-((2-Amino-7-(6-(pyrrolidin-1-ylmethyl)pyridin-3-yl)pyrido[3,2-d]pyrimidin-4-yl)amino)-2-methylhexan-1-ol] came in with a 50% effective concentration (EC50) of 80 nM and an Emax of 106%.
On to `CCCC[C@](C)(CO)Nc1nc(N)nc2cc(-c3ccc(C4CCN(C)CC4)nc3)cnc12` [Example 4, (R)-2-((2-Amino-7-(6-(1-methylpiperidin-4-yl)pyridin-3-yl)pyrido[3,2-d]pyrimidin-4-yl)amino)-2-methylhexan-1-ol], for which, in data set [1], a half-maximal effect (EC50) was put at 100 nM and the maximal response (Emax) turned out to be 97%. Besides, the IC50 in data set [2] came to 16000 nM.
In the same order, the values of `CCCCC(C)(CO)Nc1nc(N)nc2cc(-c3ccc(CN4CCN(C)CC4)nc3)cnc12` (centres unmarked) [Example 5, 2-((2-Amino-7-(6-((4-methylpiperazin-1-yl)methyl)pyridin-3-yl)pyrido[3,2-d]pyrimidin-4-yl)amino)-2-methylhexan-1-ol] are 270 nM, 110% and 8300 nM.
In the same order, the values of `CCCC[C@](C)(CO)Nc1nc(N)nc2cc(-c3ccc(CN4CCN(C)CC4)nc3)cnc12` [Example 6, (R)-2-((2-Amino-7-(6-((4-methylpiperazin-1-yl)methyl)pyridin-3-yl)pyrido[3,2-d]pyrimidin-4-yl)amino)-2-methylhexan-1-ol] are 100 nM, 107% and more than 30000 nM.
On to `CCCC[C@](C)(CO)Nc1nc(N)nc2cc(-c3cnc(C4CCN(C)CC4)nc3)cnc12` [Example 8, (R)-2-((2-Amino-7-(2-(1-methylpiperidin-4-yl)pyrimidin-5-yl)pyrido[3,2-d]pyrimidin-4-yl)amino)-2-methylhexan-1-ol], for which, in data set [1], a half-maximal effect (EC50) was put at 40 nM and the maximum response (Emax) amounted to 114%. In data set [2], the half-inhibitory concentration (IC50) is more than 30000 nM.
